Reference: US20040047894A1, “Preparation for improved dietary utilisation” (priority 2001, published 2004)

Columns and labels:
ICR mice [1] = assay: Four-week feeding experiment: bodyweight, feed intake and feed utilization; type: in vivo; details: four weeks
ICR mice [2] = details: 1.0% calendic acid (ethyl ester) in feed, six weeks
Protocol: 5-6-week-old male and female ICR mice were obtained from Charles River. 18 animals (9 m/w) were randomly assigned to each experimental group. The animals were raised in groups of 3 animals at 20° C. in a 12-hour light/dark cycle. […] It comprised the following components: sucrose, casein, corn starch, DL-methionin, 5.5% of a mixture of vegetable oils (so that the feed comprised 0.6% linolenic acid and 3% linoleic acid of the total lipids), mineral and vitamin mix and Ethoxyquin (0.1 g/kg). In the experimental feed, the amount of vegetable oils was replaced by the corresponding amount of calendic acid. Calendic acid was present here as the ethyl ester and was obtained from calendula oil (BiRo, Sommerschenburg, Germany).
After a one-week adaptation period on control feed, a six-week experiment was carried out. Body weight and feed intake were measured weekly. At the end of the study the animals were killed and viscera and organs such as liver, heart and lungs were removed. The empty carcasses were frozen in liquid nitrogen, homogenized, and the contents of fat, protein and ash were determined by standard methods.

Structure (SMILES): CCCCC\C=C/C=C/C=C/CCCCCCC(=O)O [Calendic acid, calendic acid]
- feed intake, male animals (ICR mice [1]; male ICR mice, calendula oil 0.5-2.0% in feed): dose-dependent effect towards reduced feed intake
- feed utilization, male animals (ICR mice [1]; male ICR mice, calendula oil 0.5-2.0% in feed, dose-dependent, FIG. 3): significantly improved
- weight gain (ICR mice [1]; male and female ICR mice, calendula oil 0.5-2.0% in feed, FIG. 1): without affecting weight gain
- feed intake (ICR mice [1]; male and female ICR mice, corn oil in feed replaced by crude calendula oil 0.5, 1.0 or 2.0% (approx. 62% calendic acid as triglyceride), FIG. 2): reduced feed intake
- changes in body weight versus control group (ICR mice [2]; ICR mice): comparable
- fat content in the experimental animals (ICR mice [2]; ICR mice, effect greater in male than in female animals): significantly decreased the fat content
- Body fat content (in % of body composition), female animals (ICR mice [2]; female ICR mice, control 10.3% fat): 9.5% fat
- Body fat content (in % of body composition), male animals (ICR mice [2]; male ICR mice, control 12.2% fat): 8.0% fat
